Measurements as given in patent US10517854B2, “Dosing regiments of celgosivir for the treatment of dengue” (60 Degrees Pharmaceuticals, LLC, priority 2013, dated 2019).
Read-outs that look alike come from different tables or passages of the source.

How the values were obtained:
DENV2 (TSV01 strain) = test: Cell-based flaviviral immunodetection assay (CFI), DENV2; details: Dengue virus, DENV2, BHK-21, 48 h, DENV2, BHK21 cells
Experimental: BHK21 cells were seeded at 1.3×104 in 96-well plate and incubated overnight at 37° C. in 5% CO2 incubator. Confluent monolayer of BHK21 cells were infected with DENV2 (TSV01 strain) at an MOI (multiplicity of infection) 0.3 in the presence of various concentrations of test compounds and incubated for 1 hour at 37° C. in 5% CO2 incubator. Infected cells were incubated with test compounds for another 48 hours at 37° C. in 5A CO2. Cells were fixed with methanol and mouse monoclonal antibody 4G2 was used to detect DENV E protein, which was quantified using a secondary anti-mouse antibody conjugated with horseradish peroxidase (HRP). Absorbance was read at 450 nm and dose-response curve was plotted accordingly. The 50% effective concentration (EC50), that is, the concentration of the test compound that decreased the level of viral E protein production by 50%, was calculated by nonlinear regression analysis.

[1] = test system: DENV2 in THP-1 human monocytes; test: ADE infection of human monocytes (THP-1), plaque assay; assay type: cell-based; details: Dengue virus, THP-1, DENV2 + 4G2 antibody, 48 hours, read-out: EC50, suppression of viral replication under ADE condition
Experimental: The activity of celgosivir in infected human monocytes, one of the primary circulating cell types infected by dengue virus, was examined, THP-1 cells were grown in RPMI-1640 maintenance medium containing 10% fetal calf serum and 1% Penicillin-streptomycin and cultured in 37° C. incubator supplemented with 5% CO2. For ADE infection in THP-1 cells, virus (DENV2, MOI-10) was mixed with sub-neutralizing concentration of humanized 4G2 monoclonal antibody (0.05 μg/0.5 ml) and allowed to incubate on ice for 1 hr in the serum free medium, to allow immune complex formations. The immune complex was then added on to THP-1 (1×10^5) cells per well in a 24 well plate and further incubated for 2 hours at 37° C. incubator. An excess unbound immune complex was then removed by spinning cells at 1000 rpm for 5 min and then cells were supplemented with complete growth maintenance medium. For drug testing in the ADE condition, cells were mock (untreated) or celgosivir-treated for 48 hours, and finally media supernatant was collected for plaque assay analysis.

[2] = Population PK in dengue fever patients (NONMEM, predicted NCA parameters); assay type: in vivo, human; details: 400 mg loading dose then 200 mg every 12 hours for 9 doses
Experimental: Population pharmacokinetic (PK) analysis of castanospermine plasma concentration data after administration of celgosivir was performed using the non-linear mixed effects modelling software NONMEM (version 7.2.0). (16) Pharmacokinetic parameters were estimated using the first order conditional estimation method (FOCE) with eta-epsilon interaction. Due to limited data during the input phase, first-order absorption/formation of castanospermine was assumed. Between-subject variability was assumed to be log-nomally distributed. Model development was guided by objective function value (OFV), precision of the parameter estimates, inspection of standard goodness of lit plots and scientific plausability. The emperical Bayes estimates from the final model were used to predict individual concentrations for a standard saturated sampling design (i.e., samples collected at 0, 0.25, 0.5, 1, 1.5, 2, 4, 6 and 12 hours post-dose)) after the first dose (400 mg) and dose 9 (day 5; 200 mg). […] The NCA parameter values were derived using the statistical analysis software R (version 3.0.1). (17) NCA parameters after dose 9 were only determined for subject who received this dose. […]

[3] = cited from earlier work
[4] = cited from earlier work; for AUCss / Cmin,ss / t1/2 / tmax: HIV-positive patients
[5] = cited from earlier work
[6] = radiolabeled castanospermine, PO or IV, within 24 hr
[7] = celgosivir 10 mg/day for 14 days
[8] = celgosivir 20 mg/day for 14 days
[9] = celgosivir 40 mg/day for 14 days
[10] = celgosivir 80 mg/day for 14 days
[11] = celgosivir 160 mg/day for 14 days
[12] = celgosivir 240 mg/day for 14 days
[13] = celgosivir 360 mg/day for 14 days
[14] = celgosivir 450 mg/day for 14 days

O[C@H]1[C@H](O)[C@@H](O)CN2CC[C@H](O)[C@H]12 [Castanospermine]
EC50 (DENV2 (TSV01 strain)): ~21 µM
EC50 [1]: 14 µM
variability in exposure between subjects [2]: small to moderate
mean Cmax in the portal vein ([3]; 400 mg/kg celgosivir PO): 105600 ng/mL
AUC 0-60 min ([3]; portal vein, 400 mg/kg celgosivir PO): 63900 ng·h/mL
route of excretion of radioactivity [3, 6]: majority of radioactivity was detected within urine
urinary radioactivity identified as castanospermine [3, 6]: more than 92%
AUCss [4, 7]: 1000 ng·h/mL
Cmin,ss [4, 7]: 8 ng/mL
t1/2 [4, 7]: 13 h
tmax [4, 7]: 0.7 h
AUCss [4, 8]: 1750 ng·h/mL
Cmin,ss [4, 8]: 11 ng/mL
t1/2 [4, 8]: 27 h
tmax [4, 8]: 1 h
AUCss [4, 9]: 3610 ng·h/mL
Cmin,ss [4, 9]: 23 ng/mL
t1/2 [4, 9]: 30 h
tmax [4, 9]: 1 h
AUCss [4, 10]: 6530 ng·h/mL
Cmin,ss [4, 10]: 29 ng/mL
t1/2 [4, 10]: 16 h
tmax [4, 10]: 0.3 h
AUCss [4, 11]: 13300 ng·h/mL
Cmin,ss [4, 11]: 70 ng/mL
t1/2 [4, 11]: 21 h
tmax [4, 11]: 0.8 h
AUCss [4, 12]: 21500 ng·h/mL
Cmin,ss [4, 12]: 110 ng/mL
t1/2 [4, 12]: 16 h
tmax [4, 12]: 0.6 h
AUCss [4, 13]: 32100 ng·h/mL
Cmin,ss [4, 13]: 179 ng/mL
t1/2 [4, 13]: 15 h
tmax [4, 13]: 0.7 h
AUCss [4, 14]: 39800 ng·h/mL
Cmin,ss [4, 14]: 191 ng/mL
t1/2 [4, 14]: 14 h
excretion and metabolites ([4]; humans): excreted unchanged in the urine, with no other metabolites detected
gastrointestinal effects ([5]; 2 g/kg, sucrose- and starch containing diets): severe diarrhea and high intestinal bacterial counts
GI toxicity ([5]; diet of proteins, vitamins and glucose without sucrose or complex carbohydrates): ameliorated
